Laboratory results published in patent publication US12539292B2, “BRM targeting compounds and associated methods of use” (Arvinas Operations, Inc., priority 2018, dated 2026).

Biological target: T1, BRM (Homo sapiens, UniProt P51531)
T1 construct: In-Cell Western Screen of BRM Degradation in SW1573 Cells; endogenous in cells; host or cells: SW1573
Assay: In-cell Western screen of BRM degradation in SW1573 cells (Dmax and DC50)
Assay type: cell-based
Conditions: BRM degradation, SW1573 cells; for DC50: read-out: DC50; for Dmax: tested at the top concentration of between 0.3 and 10 μM, read-out: Dmax (%) (% degraded)
Summary of the method: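 SW1573, overnight cpd exposure (18-20 h), 0.1% DMSO final. PFA fix, 0.5% Triton permeabilization, block; IR secondaries at 800/680 nm. Odyssey read → Dmax, DC50.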

T1 sequence (P51531 whole entry): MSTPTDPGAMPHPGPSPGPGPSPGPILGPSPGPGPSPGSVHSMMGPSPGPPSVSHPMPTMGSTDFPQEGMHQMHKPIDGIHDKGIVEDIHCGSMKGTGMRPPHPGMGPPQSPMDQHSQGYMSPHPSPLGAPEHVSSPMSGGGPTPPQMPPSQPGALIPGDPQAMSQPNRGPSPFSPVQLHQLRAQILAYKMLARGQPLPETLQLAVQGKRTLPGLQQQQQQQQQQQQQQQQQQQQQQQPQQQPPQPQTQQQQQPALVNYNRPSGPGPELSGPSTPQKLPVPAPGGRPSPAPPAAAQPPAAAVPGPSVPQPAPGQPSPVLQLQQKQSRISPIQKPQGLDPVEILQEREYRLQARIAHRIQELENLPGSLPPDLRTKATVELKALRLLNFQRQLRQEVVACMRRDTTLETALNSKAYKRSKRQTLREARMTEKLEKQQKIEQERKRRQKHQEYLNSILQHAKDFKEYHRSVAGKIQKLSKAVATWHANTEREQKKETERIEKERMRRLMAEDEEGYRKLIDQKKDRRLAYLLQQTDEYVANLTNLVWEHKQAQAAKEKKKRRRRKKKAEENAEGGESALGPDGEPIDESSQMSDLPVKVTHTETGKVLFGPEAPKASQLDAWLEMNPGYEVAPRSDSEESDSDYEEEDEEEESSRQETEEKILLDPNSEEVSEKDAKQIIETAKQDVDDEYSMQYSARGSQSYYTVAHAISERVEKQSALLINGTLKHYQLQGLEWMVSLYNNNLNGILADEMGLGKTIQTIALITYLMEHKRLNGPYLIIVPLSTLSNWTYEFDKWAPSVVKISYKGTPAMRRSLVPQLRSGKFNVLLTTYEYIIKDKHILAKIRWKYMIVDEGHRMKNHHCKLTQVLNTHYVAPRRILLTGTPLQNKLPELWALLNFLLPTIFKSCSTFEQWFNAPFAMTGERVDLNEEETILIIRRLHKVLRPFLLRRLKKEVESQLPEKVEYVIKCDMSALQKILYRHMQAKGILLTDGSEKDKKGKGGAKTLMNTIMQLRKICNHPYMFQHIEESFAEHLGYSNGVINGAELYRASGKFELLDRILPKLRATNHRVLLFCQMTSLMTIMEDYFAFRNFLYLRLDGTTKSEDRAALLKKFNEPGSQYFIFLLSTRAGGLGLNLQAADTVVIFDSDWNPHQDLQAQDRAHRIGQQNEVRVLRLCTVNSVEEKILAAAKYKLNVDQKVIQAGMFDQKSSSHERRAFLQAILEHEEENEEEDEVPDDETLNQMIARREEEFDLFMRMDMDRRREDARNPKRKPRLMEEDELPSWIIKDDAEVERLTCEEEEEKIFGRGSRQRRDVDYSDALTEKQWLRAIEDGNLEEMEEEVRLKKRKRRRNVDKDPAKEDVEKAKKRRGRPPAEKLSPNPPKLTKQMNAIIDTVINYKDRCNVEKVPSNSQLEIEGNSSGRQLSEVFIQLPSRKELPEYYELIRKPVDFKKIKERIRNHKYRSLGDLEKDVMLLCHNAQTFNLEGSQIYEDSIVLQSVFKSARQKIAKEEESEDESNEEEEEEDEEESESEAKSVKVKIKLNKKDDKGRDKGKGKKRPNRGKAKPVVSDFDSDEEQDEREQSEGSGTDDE

Row | Structure (SMILES) | DC50 | Dmax
1 | Cc1ncsc1-c1ccc([C@@H](NC(=O)[C@@H]2C[C@@H](O)CN2C(=O)[C@H](c2cc(OCCN3CCN(CCOc4cc(N5C6CCC5CN(c5cc(-c7ccccc7O)nnc5N)C6)ccn4)CC3)no2)C(C)C)C(=O)N(C)C2CCC2)cc1 [compound 245, (2S,4R)-1-((2S)-2-(3-(2-(4-(2-((4-(3-(3-amino-6-(2-hydroxyphenyl)pyridazin-4-yl)-3,8-diazabicyclo[3.2.1]octan-8-yl)pyridin-2-yl)oxy)ethyl)piperazin-1-yl)ethoxy)isoxazol-5-yl)-3-methylbutanoyl)-N-((R)-2-(cyclobutyl(methyl)amino)-1-(4-(4-methylthiazol-5-yl)phenyl)-2-oxoethyl)-4-hydroxypyrrolidine-2-carboxamide] | 2.5 to 10 nM | > 75%
2 | Cc1ncsc1-c1ccc([C@@H](NC(=O)[C@@H]2C[C@@H](O)CN2C(=O)[C@@H](c2cc(OCCN3CCN(CCOc4cc(N5C6CCC5CN(c5cc(-c7ccccc7O)nnc5N)C6)ccn4)CC3)no2)C(C)C)C(=O)N(C)C2CCC2)cc1 [compound 246, (2S,4R)-1-((2R)-2-(3-(2-(4-(2-((4-(3-(3-amino-6-(2-hydroxyphenyl)pyridazin-4-yl)-3,8-diazabicyclo[3.2.1]octan-8-yl)pyridin-2-yl)oxy)ethyl)piperazin-1-yl)ethoxy)isoxazol-5-yl)-3-methylbutanoyl)-N-((R)-2-(cyclobutyl(methyl)amino)-1-(4-(4-methylthiazol-5-yl)phenyl)-2-oxoethyl)-4-hydroxypyrrolidine-2-carboxamide] | < 2.5 nM | > 75%
3 | CC(C)[C@H](C(=O)N1C[C@H](O)C[C@H]1C(=O)N[C@@H](C)c1ccc(C(F)(F)F)cc1)c1cc(OCCN2CCC(O[C@H]3C[C@H](Oc4cc(N5C6CCC5CN(c5cc(-c7ccccc7O)nnc5N)C6)ccn4)C3)CC2)no1 [compound 247, (2S,4R)-1-((2S)-2-(3-(2-(4-((1r,3S)-3-((4-(3-(3-amino-6-(2-hydroxyphenyl)pyridazin-4-yl)-3,8-diazabicyclo[3.2.1]octan-8-yl)pyridin-2-yl)oxy)cyclobutoxy)piperidin-1-yl)ethoxy)isoxazol-5-yl)-3-methylbutanoyl)-4-hydroxy-N-((S)-1-(4-(trifluoromethyl)phenyl)ethyl) pyrrolidine-2-carboxamide] | > 30 nM | –
4 | CC(C)[C@@H](C(=O)N1C[C@H](O)C[C@H]1C(=O)N[C@@H](C)c1ccc(C(F)(F)F)cc1)c1cc(OCCN2CCC(O[C@H]3C[C@H](Oc4cc(N5C6CCC5CN(c5cc(-c7ccccc7O)nnc5N)C6)ccn4)C3)CC2)no1 [compound 248, (2S,4R)-1-((2R)-2-(3-(2-(4-((1r,3R)-3-((4-(3-(3-amino-6-(2-hydroxyphenyl)pyridazin-4-yl)-3,8-diazabicyclo[3.2.1]octan-8-yl)pyridin-2-yl)oxy)cyclobutoxy)piperidin-1-yl)ethoxy)isoxazol-5-yl)-3-methylbutanoyl)-4-hydroxy-N-((S)-1-(4-(trifluoromethyl)phenyl)ethyl) pyrrolidine-2-carboxamide] | > 30 nM | –
5 | Cc1ncsc1-c1ccc([C@H](C)NC(=O)[C@@H]2C[C@@H](O)CN2C(=O)[C@H](c2cc(OCCCC#Cc3ccc(O[C@H]4C[C@H](Oc5cc(N6C7CCC6CN(c6cc(-c8ccccc8O)nnc6N)C7)ccn5)C4)cn3)no2)C(C)C)cc1 [compound 249, (2S,4R)-1-((2S)-2-(3-((5-(5-((1r,3r)-3-((4-(3-(3-amino-6-(2-hydroxyphenyl)pyridazin-4-yl)-3,8-diazabicyclo[3.2.1]octan-8-yl)pyridin-2-yl)oxy)cyclobutoxy)pyridin-2-yl)pent-4-yn-1-yl)oxy)isoxazol-5-yl)-3-methylbutanoyl)-4-hydroxy-N-((S)-1-(4-(4-methylthiazol-5-yl)phenyl)ethyl)pyrrolidine-2-carboxamide] | > 30 nM | > 75%
6 | Cc1ncsc1-c1ccc([C@H](C)NC(=O)[C@@H]2C[C@@H](O)CN2C(=O)[C@@H](c2cc(OCCCC#Cc3ccc(O[C@H]4C[C@H](Oc5cc(N6C7CCC6CN(c6cc(-c8ccccc8O)nnc6N)C7)ccn5)C4)cn3)no2)C(C)C)cc1 [compound 250, (2S,4R)-1-((2R)-2-(3-((5-(5-((1r,3r)-3-((4-(3-(3-amino-6-(2-hydroxyphenyl)pyridazin-4-yl)-3,8-diazabicyclo[3.2.1]octan-8-yl)pyridin-2-yl)oxy)cyclobutoxy)pyridin-2-yl)pent-4-yn-1-yl)oxy)isoxazol-5-yl)-3-methylbutanoyl)-4-hydroxy-N-((S)-1-(4-(4-methylthiazol-5-yl)phenyl)ethyl)pyrrolidine-2-carboxamide] | < 2.5 nM | > 75%
7 | Cc1ncsc1-c1ccc([C@H](C)NC(=O)[C@@H]2C[C@@H](O)CN2C(=O)[C@H](c2cc(OCCN3CCC(O[C@H]4C[C@H](Oc5cc(N6C7CCC6CN(c6cc(-c8ccccc8O)nnc6N)C7)ccn5)C4)CC3)no2)C(C)C)cc1F [compound 252, (2S,4R)-1-((2S)-2-(3-(2-(4-((1r,3S)-3-((4-(3-(3-amino-6-(2-hydroxyphenyl)pyridazin-4-yl)-3,8-diazabicyclo[3.2.1]octan-8-yl)pyridin-2-yl)oxy)cyclobutoxy)piperidin-1-yl)ethoxy)isoxazol-5-yl)-3-methylbutanoyl)-N-((S)-1-(3-fluoro-4-(4-methylthiazol-5-yl)phenyl)ethyl)-4-hydroxypyrrolidine-2-carboxamide] | > 30 nM | > 75%
8 | Cc1ncsc1-c1ccc([C@H](C)NC(=O)[C@@H]2C[C@@H](O)CN2C(=O)[C@@H](c2cc(OCCN3CCC(O[C@H]4C[C@H](Oc5cc(N6C7CCC6CN(c6cc(-c8ccccc8O)nnc6N)C7)ccn5)C4)CC3)no2)C(C)C)cc1F [compound 253, (2S,4R)-1-((2R)-2-(3-(2-(4-((1r,3R)-3-((4-(3-(3-amino-6-(2-hydroxyphenyl)pyridazin-4-yl)-3,8-diazabicyclo[3.2.1]octan-8-yl)pyridin-2-yl)oxy)cyclobutoxy)piperidin-1-yl)ethoxy)isoxazol-5-yl)-3-methylbutanoyl)-N-((S)-1-(3-fluoro-4-(4-methylthiazol-5-yl)phenyl)ethyl)-4-hydroxypyrrolidine-2-carboxamide] | < 2.5 nM | > 75%
9 | Cc1ncsc1-c1ccc([C@H](C)NC(=O)[C@H]2C[C@H](O)CN2C(=O)C(c2cc(OCCN3CCC(O[C@H]4C[C@H](Oc5cc(N6C7CCC6CN(c6cc(-c8ccccc8O)nnc6N)C7)ccn5)C4)CC3)no2)C(C)C)cn1 (stereo partly drawn) [compound 254, (2R,4S)-1-(2-(3-(2-(4-((1r,3r)-3-((4-(3-(3-amino-6-(2-hydroxyphenyl)pyridazin-4-yl)-3,8-diazabicyclo[3.2.1]octan-8-yl)pyridin-2-yl)oxy)cyclobutoxy)piperidin-1-yl)ethoxy)isoxazol-5-yl)-3-methylbutanoyl)-4-hydroxy-N-((S)-1-(6-(4-methylthiazol-5-yl)pyridin-3-yl)ethyl)pyrrolidine-2-carboxamide] | > 30 nM | –
10 | Cc1ncsc1-c1ccc([C@@H](CN)NC(=O)[C@@H]2C[C@@H](O)CN2C(=O)[C@H](c2cc(OCCN3CCN(CCOc4cc(N5C6CCC5CN(c5cc(-c7ccccc7O)nnc5N)C6)ccn4)CC3)no2)C(C)C)cc1 [compound 255, (2S,4R)-N-((S)-2-amino-1-(4-(4-methylthiazol-5-yl)phenyl)ethyl)-1-((2S)-2-(3-(2-(4-(2-((4-(3-(3-amino-6-(2-hydroxyphenyl)pyridazin-4-yl)-3,8-diazabicyclo[3.2.1]octan-8-yl)pyridin-2-yl)oxy)ethyl)piperazin-1-yl)ethoxy)isoxazol-5-yl)-3-methylbutanoyl)-4-hydroxypyrrolidine-2-carboxamide] | > 30 nM | –
